# Reference: PMC11435058, “Synthesis of New Thiazole-Privileged Chalcones as Tubulin Polymerization Inhibitors with Potential Anticancer Activities” (Pharmaceuticals, 2024)
# Legend:
# DU-145 = test: NCI-60 anticancer screen (SRB; single dose and five doses); conditions: Homo sapiens, DU-145, 48 h, read-out: Growth Percentage
# K-562 = test: as above; conditions: Homo sapiens, K562, 48 h, read-out: Growth Percentage
# UO-31 = test: as above; conditions: Homo sapiens, UO-31, 48 h, read-out: Growth Percentage
# OVCAR-5 = test: as above; conditions: Homo sapiens, OVCAR-5, 48 h, read-out: Growth Percentage
# SN12C = test: as above; conditions: Homo sapiens, 48 h, read-out: Growth Percentage
# LOX IMVI = test: as above; conditions: Homo sapiens, 48 h, read-out: Growth Percentage
# SNB-75 = test: as above; conditions: Homo sapiens, SNB-75, 48 h, read-out: Growth Percentage
# CAKI-1 = test: as above; conditions: Homo sapiens, CAKI-1, 48 h, read-out: Growth Percentage
# EKVX = test: as above; conditions: Homo sapiens, 48 h, read-out: Growth Percentage
# MCF7 = test: as above; conditions: Homo sapiens, MCF7, 48 h, read-out: Growth Percentage
# IGROV1 = test: as above; conditions: Homo sapiens, IGROV-1, 48 h, read-out: Growth Percentage
# UACC-257 = test: as above; conditions: Homo sapiens, UACC-257, 48 h, read-out: Growth Percentage
# SK-MEL-5 = test: as above; conditions: Homo sapiens, SK-MEL-5, 48 h, read-out: Growth Percentage
# OVCAR-4 = test: as above; conditions: Homo sapiens, OVCAR-4, 48 h, read-out: Growth Percentage
# KM12 = test: as above; conditions: Homo sapiens, KM12, 48 h, read-out: Growth Percentage
# OVCAR-3 = test: cells; conditions: Homo sapiens, OVCAR-3, 48 h, read-out: Growth Percentage
# U251 = test: NCI-60 anticancer screen (SRB; single dose and five doses); conditions: Homo sapiens, U-251, 48 h, read-out: Growth Percentage
# HT29 = test: as above; conditions: Homo sapiens, HT-29, 48 h, read-out: Growth Percentage
# SK-MEL-2 = test: as above; conditions: Homo sapiens, SK-MEL-2, 48 h, read-out: Growth Percentage
# SR = test: as above; conditions: Homo sapiens, 48 h, read-out: Growth Percentage
# UACC-62 = test: as above; conditions: Homo sapiens, UACC-62, 48 h, read-out: Growth Percentage
# SW-620 = test: as above; conditions: Homo sapiens, SW-620, 48 h, read-out: Growth Percentage
# MDA-MB-231/ATCC = test: as above; conditions: Homo sapiens, MDA-MB-231, 48 h, read-out: Growth Percentage
# HS 578T = test: as above; conditions: Homo sapiens, 48 h, read-out: Growth Percentage
# 786-0 = test: as above; conditions: Homo sapiens, 786-0, 48 h, read-out: Growth Percentage
# HL-60(TB) = test: as above; conditions: Homo sapiens, HL-60, 48 h, read-out: Growth Percentage
# SF-268 = test: as above; conditions: Homo sapiens, SF-268, 48 h, read-out: Growth Percentage
# MDA-MB-435 = test: as above; conditions: Homo sapiens, MDA-MB-435, 48 h, read-out: Growth Percentage
# T-47D = test: as above; conditions: Homo sapiens, T47D, 48 h, read-out: Growth Percentage
Compound,activity at 10 µM (DU-145) [%],activity at 10 µM (K-562) [%],activity at 10 µM (UO-31) [%],activity at 10 µM (OVCAR-5) [%],activity at 10 µM (SN12C) [%],activity at 10 µM (LOX IMVI) [%],activity at 10 µM (SNB-75) [%],activity at 10 µM (CAKI-1) [%],activity at 10 µM (EKVX) [%],activity at 10 µM (MCF7) [%],activity at 10 µM (IGROV1) [%],activity at 10 µM (UACC-257) [%],activity at 10 µM (SK-MEL-5) [%],activity at 10 µM (OVCAR-4) [%],activity at 10 µM (KM12) [%],activity at 10 µM (OVCAR-3) [%],activity at 10 µM (U251) [%],activity at 10 µM (SK-MEL-2) [%],activity at 10 µM (SR) [%],activity at 10 µM (UACC-62) [%],also measured
"COc1ccc(/C=C/C(=O)c2sc(=S)[nH]c2C)cc1 [2l, (E)-3-(4-Methoxyphenyl)-1-(4-Methyl-2-Thioxo-2,3-Dihydrothiazol-5-yl)Prop-2-En-1-One]",58.5,56.6,49,145,74.9,44.2,98,59,84.8,30.8,89.1,68,55.9,72.3,42.2,66.9,62.3,80.3,43.7,71.8,activity at 10 µM (HT29): 96.8%; activity at 10 µM (SW-620): 75.3%; activity at 10 µM (MDA-MB-231/ATCC): 89.3%; activity at 10 µM (HS 578T): 96.5%; activity at 10 µM (786-0): 78.1%; activity at 10 µM (HL-60(TB)): 58.5%; activity at 10 µM (SF-268): 81%; activity at 10 µM (MDA-MB-435): 63.9%
"COc1cccc(/C=C/C(=O)c2sc(=S)[nH]c2C)c1OC [2m, (E)-3-(2,3-Dimethoxyphenyl)-1-(4-Methyl-2-Thioxo-2,3-Dihydrothiazol-5-yl)Prop-2-En-1-One]",42,27.5,53.7,81.7,45,21.7,50.4,41.9,54.5,16.6,73.9,35.4,23.5,62.2,25.3,24.3,20.3,94.2,5.15,45.5,activity at 10 µM (T-47D): 34.5%; activity at 10 µM (SW-620): 47.9%; activity at 10 µM (MDA-MB-231/ATCC): 68.3%; activity at 10 µM (HS 578T): 49.2%; activity at 10 µM (HL-60(TB)): 12.7%; activity at 10 µM (SF-268): 54%; activity at 10 µM (MDA-MB-435): 51.9%
